From publication PMC6331730 (The EMBO Journal, 2018) come the findings set out here.

The structures appear in SMILES notation.

The assay deals with Purified tubulin with GST-tagged CPAP PN2-3 (pull-down). Nature of the assay: GST-PN2-3 pull-down, semi-quantitative Western blot. Format: binding. The following applies: protein-protein interaction inhibition. In general terms: Immunoblotting shows a protein as a band on a membrane.

Consider `COc1ncc2cc3ccccc3nc2c1C#N` [CCB02, 3‐Methoxybenzo[b][1,6]naphthyridine‐4‐carbonitrile], for which the IC50 – broadly, the concentration that gives 50% inhibition – is approximately 441 nM.
